Measured values from ChEMBL document CHEMBL1146310, “Amplification of DNA-binding affinities of protoberberine alkaloids by appended polyamines” (Bioorg Med Chem Lett, 2007).

system: DNA; test: Binding affinity to calf thymus DNA; type: nucleic-acid assay; details: Bos taurus

Row | Kapp | SMILES
1 | 8.72 10^3/M | COc1cc2c(cc1OC)-c1cc3ccc(OC)c(OC)c3c[n+]1CC2
2 | 1.15 10^7/M | COc1cc2c(cc1OCCCNC(=O)C(N)CCCCNC(=O)C(N)CCCCN)CC[n+]1cc3c(OCCCNC(=O)C(N)CCCCNC(=O)C(N)CCCCN)c(OC)ccc3cc1-2 (centres undefined)
3 | 1.08 10^7/M | COc1cc2c(cc1OCCCNC(=O)C(N)CCCCN)CC[n+]1cc3c(OCCCNC(=O)C(N)CCCCN)c(OC)ccc3cc1-2 (centres undefined)
4 | 2.81 10^5/M | COc1cc2c(cc1OCCCN)CC[n+]1cc3c(OCCCN)c(OC)ccc3cc1-2
